# From PubChem BioAssay AID540260 (Sanford-Burnham Center for Chemical Genomics, 2011)
# Active and inactive are the calls of the source. No rule for the calls is given here.
# Molecular target: Alkaline phosphatase, placental type (Homo sapiens) (UniProt P05187)
# Test: inhibitors of placental alkaline phosphatase – biochemical, human PLAP isozyme, set 2, selectivity assay for human IAP inhibitor project, SAR follow-up (AID 540260)
# Conditions: purified placental alkaline phosphatase enzyme activity
row,Compound,IC50
1,O=C(CNS(=O)(=O)c1ccc2[nH]c(=O)oc2c1)NCc1ccc2c(c1)OCO2,> 100 µM (inactive)
2,COc1ccc(NC(=O)CNS(=O)(=O)c2ccc3[nH]c(=O)oc3c2)cc1OC,> 100 µM (inactive)
3,Cc1ccc(C)c(NC(=O)CCNS(=O)(=O)c2ccc3[nH]c(=O)oc3c2)c1,> 100 µM (inactive)
4,N#Cc1ccc(CNC(=O)CCNS(=O)(=O)c2ccc3[nH]c(=O)oc3c2)cc1,> 100 µM (inactive)
5,O=C(CNS(=O)(=O)c1ccc2[nH]c(=O)oc2c1)Nc1ccc2c(c1)OCO2,> 100 µM (inactive)
